Where no end group is shown, it is not given here.

Assay [1] has as its system bacteria. Conditions: repeated subcultures at one-half MIC; Steinberg et al., 1997; cited from earlier work.
Assay [2] relates to polymicrobial flora of the oral cavity. The experiment in a line: Microbicidal activity in human saliva. It is filed as cell-based.

Take “PG-1: protegrin peptide PG-1 (RGGRLCYCRRRFCVCVGR; ends and bridges not checked; cysteine pairing not given here; UniProt P32194 131-148, looked up)”: the development of resistance entry in assay [1] is given as “did not result in the development of resistance”. With RGGLCYCRGRFCVCVGR [native IB-367], in assay [2], the “microbicidal activity in human saliva” value was “retains its microbicidal activity”.

The values are drawn from patent US20030073625A1, “Methods of preventing ventilator associated pneumonia by oral administration of antimicrobial IB-367 peptides” (priority 2001, published 2003).
